According to publication PMC3527451, “A Pilot Randomized, Placebo Controlled, Double Blind Phase I Trial of the Novel SIRT1 Activator SRT2104 in Elderly Volunteers” (PLoS ONE, 2012):
“Also recorded” adds a separate entry of the source. Where two headings read alike, the source gives them in different places.

Key:
[1] = tested on: SIRT2; conditions: SIRT1 activation over SIRT2; ref SRT2104 Investigator's Brochure; cited from earlier work
[2] = tested on: DIO mice and ob/ob mice; conditions: cited from earlier work
[3] = tested on: CYP2D6; conditions: human liver microsomes; cited from earlier work
[4] = cited from earlier work
[5] = tested on: rat; parameters: method as in SRT2104 Investigator's Brochure; conditions: ref SRT2104 Investigator's Brochure, cited from earlier work; for NOAEL: 28 days
[6] = tested on: CYP1A; conditions: human liver microsomes; cited from earlier work
[7] = tested on: elderly male and female volunteers; test: MRI of subcutaneous and visceral adipose tissue; format: in vivo, human; conditions: active treatment relative to placebo
Procedure: Magnetic Resonance Imaging (MRI) was also carried out on a clinical Siemens 3T Tim Trio (Siemens Healthcare, Erlangen, Germany). The torso was imaged using the 6-channel spine array and two 4-channel body array coils. The data were acquired using a 3D spoiled gradient echo sequence with partial Fourier acquisitions (VIBE). The imaging volume consisted of contiguous 3D slabs (voxel size of 1.4×1.4×5 mm3) acquired in a single 15 s end-expiration breath-hold (repetition time = 7 ms; echo times TEs = 2.45, 3.67 ms; flip angle = 10°; 450 mm field-of-view; GRAPPA factor 2). […] Fat-only images in the abdomen were manually segmented into intra-abdominal adipose tissue (IAT) and abdominal subcutaneous adipose tissue (SAT). The abdominal area was defined by using anatomical landmarks (top of the femoral heads to the bottom of the right lung). All images were anonymized and blinded to time point, but not to subject in order to facilitate matching anatomical landmarks, and sent to a third party (Vardis Group Inc, London), who derived the adipose tissue volumes using Slice-O-Matic (Tomovision, Montreal, Canada) software. Analysis of compartmental fat distribution was performed for subcutaneous adipose tissue (SAT), visceral adipose tissue (VAT), and the ratio of SAT:VAT, using an ANOVA model with treatment group as a factor.

[8] = tested on: dog; parameters: method as in SRT2104 Investigator's Brochure; conditions: ref SRT2104 Investigator's Brochure, cited from earlier work
[9] = tested on: CYP2C9; conditions: human liver microsomes; cited from earlier work
[10] = tested on: CYP3A4; conditions: human liver microsomes; cited from earlier work
[11] = tested on: rats and dogs; parameters: method as in ref 17, 18; SRT2104 Investigator's Brochure; conditions: acute safety pharmacology, doses up to 2.0 g/kg; SRT2104 Investigator's Brochure; cited from earlier work
[12] = tested on: healthy male volunteers; conditions: young healthy volunteers, up to 7 days dosing of 0.03–3.0 g/day; cited from earlier work
[13] = tested on: elderly male and female volunteers; test: Modified oral glucose tolerance test (mOGTT); format: in vivo, human
Procedure: The oral glucose tolerance test (OGTT) allows identification and monitoring of individuals with impaired glucose tolerance and to evaluate the pharmacological effects of glucose lowering agents, [21]. A mOGTT was performed at baseline and on day 29 to assess the pharmacodynamic effects of SRT2104 (or placebo) on glucose, insulin and C-peptide levels. On both occasion, after an overnight fast, subjects were asked to drink a standard glucose beverage containing 75 g of glucose. Blood sample were drawn 10 min before and just prior to the subject consuming the beverage. Additional blood samples were drawn at 10, 20, 30, 60, 90, 120 and 180 minutes after the subject had consumed the glucose beverage. Plasma level of glucose, insulin and C-peptide were measured at each time point. The maximum glucose level (Gmax) was determined, and the area under the plasma glucose concentration–time curve (AUCgluc) was calculated using the trapezoidal rule. AUCgluc60 was defined as the area under the curve from 0 to 60 min after glucose ingestion, the period during which plasma glucose concentration increases. The effects of SRT2104 (or placebo) on glucose, insulin and C-peptide levels and relative AUCs were calculated in each subject as the differences between values at baseline (screening) and after 28 daily administrations of the test material.

[14] = tested on: elderly male and female volunteers; test: Serum lipid profile at baseline and after 28 days treatment; format: in vivo, human
Procedure: At every visit (including at screening and follow-up), blood and urine samples were collected for clinical laboratory assessments (general blood biochemistry, full blood count, coagulation parameters and urinalysis). On the same days, physical examination, vital signs (resting pulse rate, respiration rate, temperature, and blood pressure readings), pre- and post-dose 12-lead ECG and a review of adverse events (AE) and any medications received were also performed. Safety evaluations were based on the incidence, severity and type of AEs and clinically significant changes from baseline in physical examination findings, vital signs or clinical laboratory results.

[15] = once daily oral administration, ref SRT2104 Investigator's Brochure

Cc1nc(-c2cccnc2)sc1C(=O)Nc1ccccc1-c1cn2c(CN3CCOCC3)csc2n1 [SRT2104]
fold selectivity as compared to SIRT2 [1]: > 100
cholesterol, LDL and triglycerides in preclinical models of dyslipidemia, diabetes and obesity ([2]; e.g. DIO and Lep ob/ob obese mice): lower cholesterol, LDL and triglycerides
glucose and insulin levels ([2]; once daily oral 0.1 g/kg for 7 days or more, ref SRT2104 Investigator's Brochure): reduces glucose and insulin levels
body weight [2, 15]: No effect on body weight
fasting blood glucose and fed insulin [2, 15]: lowered
response to a glucose tolerance test [2, 15]: enhanced the response to a glucose tolerance test
adverse reactions in mouse models of diabetes ([2]; up to 0.3 g/kg orally once daily for 28 days, ref SRT2104 Investigator's Brochure): No adverse reactions
inhibition of CYP2D6 [3]: not an inhibitor; also recorded: does not inhibit
effect of food on overall exposure ([4]; 0.5 and 2.0 g doses, standardized solid meal vs fasted state): increase exposure levels; also recorded: increase in overall exposure
effect of food on inter-subject variability in exposure ([4]; fed state vs fasted state): substantial reduction in inter-subject variability
vacuolation of pancreatic acinar cells, animals affected ([5]; female rat, Day 29, not seen after 4 weeks recovery): 3/10
NOAEL ([5]; female rats): 1000 mg/kg
NOAEL ([5]; male rats, highest dose tested): 2000 mg/kg
tolerability ([5]; rat, up to 2.0 g/kg for 28 days): well tolerated at all doses
inhibition of CYP1A [6]: not an inhibitor; also recorded: does not inhibit
subcutaneous (SAT) and visceral (VAT) adipose tissue volumes and VAT:SAT ratio [7]: No consistent changes from baseline
tolerability ([8]; dog, up to 2.0 g/kg for 28 days): well tolerated at all doses
increase in indirect bilirubin ([8]; female dogs, 2.0 g/kg/day group): < 2 X
NOAEL ([8]; male and female dogs, 28 days): 1000 mg/kg
inhibition of CYP2C9 [9]: not an inhibitor; also recorded: does not inhibit
inhibition of CYP3A4 [10]: not an inhibitor; also recorded: does not inhibit
central nervous system, cardiovascular system and pulmonary effects [11]: no central nervous system (CNS), cardiovascular system (CVS) or pulmonary effects; also recorded: not associated with adverse central nervous system, cardiovascular system, or pulmonary effects
tolerability [12]: well tolerated and safe
OGTT responses ([13]; 0.5 or 2.0 g for 28 days): No significant changes
rise of insulin and C-peptide and peak insulin concentration in OGTT ([13]; 2.0 g/day, day 29 relative to baseline): trends to reduced rates in the rise of both insulin and C-peptide and a lower peak insulin concentration
insulin and C-peptide levels and relative AUCs in OGTT ([13]; baseline vs day 29): no statistically significant changes
serum cholesterol levels, change relative to baseline as compared to placebo ([14]; 0.5 g/day, day 28, p = 0.0071): statistically significant decrease
increase in mean HDL:LDL ratio as compared to placebo ([14]; 2.0 g/day, day 28, p = 0.0141): statistically significant
serum cholesterol levels, change relative to baseline as compared to placebo ([14]; 2.0 g/day, day 28, p = 0.0181): statistically significant decrease
total cholesterol, LDL levels and HDL:LDL ratio after drug washout ([14]; 7 days of drug washout): reverted to baseline values
high-density lipoprotein, HDL ([14]; day 28): not changes
low-density lipoprotein (LDL) cholesterol ([14]; day 28): decreases
mean HDL:LDL ratios ([14]; day 28, 0.5 and 2.0 g/day): dose-dependent increase
mean serum triglyceride concentration ([14]; day 28 relative to baseline, as compared to placebo, not dose-dependent, only a trend for 2.0 g/day): decrease
Serum cholesterol, LDL levels and triglycerides ([14]; with treatment, 0.5 or 2.0 g for 28 days): decreased
